The values that follow come from patent US8008329B2 (Dong Wha Pharmaceutical Co., Ltd., priority 2008, dated 2011).

Each structure is given as a SMILES string. Marks after values point to notes of the source that are not given here.

This assay deals with osteoclast differentiation. Nature of the assay: Osteoclast differentiation in co-culture of mouse bone marrow cells and ST2 cells, TRAP staining (Examples 8-9). Format: cell-based. Conditions: for % number of osteoclast (vs. solvent control group): 0.1 μM each, day 7; for activity at 0.1 µM: Mus musculus, Osteoclast, 168 h, Individual treatment (compounds), day 7, read-out: % number of osteoclast (vs. solvent control group). As for the experimental part: The differentiation of osteoclast from mouse bone marrow cells was induced by using co-culture system, and inhibitory effect of the drug on osteoclast differentiation was evaluated by treatment of single or combination formulation. Co-culture was performed using mouse bone marrow cells and ST cells of bone marrow-derived stromal cell.
Femora and tibia were aseptically ectomized from 6˜8 week-old male ddY mice to harvest bone marrow cells by a general method using a syringe. The red blood cells were removed from the bone marrow cells, followed by centrifugation. The bone marrow cells were suspended in α-MEM medium supplemented with 10% fetal bovine serum, and the numbers of the eukaryotic cells in the harvested bone marrow cells were counted and then immediately used for a co-culture system.
ST2 cells (RIKEN Cell Bank, Tsukuba, Japan) were cultured in α-MEM medium supplemented with 10% fetal bovine serum until confluent. Then, these cells were diluted to a desired cell number, and used for the experiment.
The bone marrow cells (1×10^5 cells/well) and ST2 cells (3,000 cells/well) prepared in the above were plated in a 96-well plate using α-MEM medium supplemented with 10% fetal bovine serum. At this time, differentiation factors, 1α,25-dihydroxyvitamin D3 (10^−8 M, hereinbelow, referred to as vitamin D3) and dexamethasone (10^−8 M), were co-added to the medium to induce osteoclast differentiation. The medium was replaced with fresh media containing the differentiation factors every 2 to 3 days.
After 7 days, when multinucleated osteoclasts were observed, the medium was removed from the wells, and then the cells were fixed with PBS containing 10% Formalin. Tartrate-Resistant Acid Phosphatase (hereinbelow, referred to as TRAP) was used as a marker to measure the mature osteoclast in consideration of its characteristics showing a positive reaction to a TRAP staining solution. The TRAP staining solution was prepared in such the manner that a substrate, naphtol AS-MS phosphate and a coloring agent (Fast Red Violet LB salt) were dissolved in N,N-dimethylformamide. A 0.1 N NaHCO3 buffer solution containing 50 mM tartaric acid was added thereto, and the mixture was stored at a refrigerator prior to use as a staining solution. The osteoclasts with 6-7 or more nuclei showing a TRAP-positive reaction were counted under a microscope.
Alendronic acid was dissolved in distilled water at a concentration of 0.1 mM, and benzamidine derivatives were dissolved in DMSO at a concentration of 0.1 mM. All of them were diluted 1,000 fold with the differentiation media to a final concentration of 0.1 μM, respectively. In this connection, a control group was maintained in 0.1% DMSO.
As the above described, the sample substances and cells, which were diluted to the desired concentrations, were plated in 96-well plate, and co-cultured. On days 3 and 5 of culture, the media were replaced with fresh differentiation media containing the sample substances. On day 7 of culture, TRAP staining was performed to count the mature multinucleated osteoclast that was formed by differentiation. The mature osteoclasts with 6 or more nuclei were counted under a microscope. The results were expressed as a percentage (%) of the number of mature osteoclast observed in each experimental group, when the number of mature osteoclast in the control group (solvent only) was regarded as 100%. The experiment was performed with 4 wells per experimental group (n=4), and the results were expressed as mean value±standard deviation. In addition, the experiment was repeated at least two times, and Student t-test was applied for significant difference between experimental groups.
The experiment was performed in the same manner as in Example 8 to evaluate the effect of individual or combination treatment of risedronic acid and benzamidine derivatives of Formula 1 on osteoclast differentiation, except using 0.1 μM risedronic acid instead of 0.1 μM alendronic acid. […]

[1] abbreviates: Combination treatment (alendronic acid + compounds).
[2] abbreviates: Combination treatment (risedronic acid + compounds).

For `CCc1sc(NC(=O)c2ccncc2)nc1-c1ccc(OCCCCCOc2ccc(C(=N)NO)cc2)cc1` [Compound 100, N-hydroxy-4-{5-[4-(5-ethyl-2-(4-pyridylcarbonyl)amino-1,3-thiazol-4-yl)phenoxy]pentyloxy}-benzamidine], the activity at 0.1 µM was found to be 46 ± 8.4%. Also, the “% number of osteoclast (vs. solvent control group)” value (“% number of osteoclast” for short) under setting [1] is on record as 14 ± 6.9^ab %. Moreover, under setting [2], the “% number of osteoclast” value is reported as 12 ± 3.0^ac %.

Regarding `N=C(NO)c1ccc(OCCCCCOc2ccc(-c3nc(N4CCOCC4)sc3CC3CCCC3)cc2)cc1` [Compound 168, N-hydroxy-4-{5-[4-(5-cyclopentylmethyl-2-morpholino-1,3-thiazol-4-yl)phenoxy]pentyloxy}-benzamidine], the activity at 0.1 µM was determined as 70 ± 9.1%. Moreover, the “% number of osteoclast” value under setting [1] is on record as 39 ± 5.2^ab %. In addition, under setting [2], the “% number of osteoclast” value is reported as 29 ± 9.7^ac %.

On to `CCc1sc(N2CCN(C)CC2)nc1-c1ccc(OCCCCCOc2ccc(C(=N)NO)cc2)cc1` [Compound 174, N-hydroxy-4-{5-(4-[5-ethyl-2-(4-methylpiperazino)-1,3-thiazol-4-yl]phenoxy)pentyloxy}-benzamidine], for which the activity at 0.1 µM came to 70 ± 2.5%. For the same compound, the “% number of osteoclast” value under setting [1] is listed as 46 ± 2.6^ab %. Moreover, the “% number of osteoclast” value under setting [2] is on record as 35 ± 5.1^ac %.

On to `Cc1nc(-c2ccc(OCCCCCOc3ccc(C(=N)NO)cc3)cc2)c(CNCC(C)C)s1` [Compound 299, N-hydroxy-4-(5-{4-[5-(isobutylamino-methyl)-2-methyl-thiazol-4-yl]-phenoxy}-pentyloxy)-benzamidine], for which the activity at 0.1 µM was 40 ± 6.9%. The “% number of osteoclast” value under setting [1] is recorded as 14 ± 2.9^ab %. The “% number of osteoclast” value under setting [2] is recorded as 11 ± 6.0^ac %.

Take `Cc1nc(-c2ccc(OCCCCCOc3ccc(C(=N)NO)cc3)cc2)c(CNC2CC2)s1` [Compound 307, N-hydroxy-4-{5-[4-(5-cyclopropylaminomethyl-2-methyl-thiazol-4-yl)-phenoxy]-pentyloxy}-benzamidine]: the activity at 0.1 µM was determined as 43 ± 8.9%. Also, the “% number of osteoclast” value under setting [1] was 30 ± 3.0^b %. In addition, the “% number of osteoclast” value under setting [2] is 16 ± 4.8^ac %.

With `Cc1nc(-c2ccc(OCCCCC(=O)Nc3ccc(C(=N)NO)cc3)cc2)c(C(C)C)s1` [Compound 182, N-hydroxy-4-{5-[4-(5-isopropyl-2-methyl-1,3-thiazol-4-yl)-phenoxy]-pentanoyl-amino}-benzamidine], the activity at 0.1 µM turned out to be 82 ± 12%. The “% number of osteoclast” value under setting [1] amounted to 45 ± 6.7%. For the same compound, under setting [2], the “% number of osteoclast” value is 41 ± 5.1^c %.

For the compound `CCCCNCc1sc(C)nc1-c1ccc(OCCCCCOc2ccc(C(=N)NO)cc2)cc1` [Compound 298, N-hydroxy-4-{5-[4-(5-butylaminomethyl-2-methyl-thiazol-4-yl)-phenoxy]-pentyloxy}-benzamidine], the activity at 0.1 µM is 55 ± 6.1%. Moreover, the “% number of osteoclast” value under setting [1] was 16 ± 3.3^ab %. Moreover, the “% number of osteoclast” value under setting [2] was 8 ± 2.9^ac %.

`CCc1nc(-c2ccc(OCCCCCOc3ccc(C(=N)NO)cc3)cc2)c(CCN2CCOCC2)s1` [Compound 255, N-hydroxy-4-(5-{4-[2-ethyl-5-(2-morpholin-4-yl-ethyl)-thiazol-4-yl]-phenoxy}-pentyloxy)-benzamidine]: the activity at 0.1 µM came to 50 ± 3.9%. Under setting [1], the “% number of osteoclast” value is 18 ± 1.7^ab %. Further, the “% number of osteoclast” value under setting [2] is reported as 12 ± 3.1^ac %.

For the compound `N=C(NO)c1ccc(OCCCCCOc2ccc(-c3nc(NC(=O)c4cccnc4)sc3CC3CCCC3)cc2)cc1` [Compound 89, N-hydroxy-4-{5-[4-(5-cyclopentylmethyl-2-(3-pyridylcarbonyl)amino-1,3-thiazol-4-yl)phenoxy]pentyloxy}-benzamidine], the activity at 0.1 µM was determined as 58 ± 5.1%. For the same compound, the “% number of osteoclast” value under setting [1] is recorded as 38 ± 1.9^ab %. Further, the “% number of osteoclast” value under setting [2] is reported as 39 ± 2.7^ac %.
